Columns and labels:
Format in all cases: in vivo
[1] = test system: Lolium rigidum; experiment: Post-emergence herbicidal action (Experimental Part 1, A); settings: application rate 1280 g/ha, rated visually after about 3 weeks
Procedure, shortened: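 Plants grown in sandy loam in the greenhouse were sprayed at the one-leaf stage, 2 to 3 weeks after sowing, with WP or EC formulations in water plus 0.5% additive at 600 l/ha. Rates were 1280 g/ha or 320 g/ha. Damage was scored visually after about 3 weeks versus untreated controls.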

[2] = test system: Stellaria media; experiment: Pre-emergence herbicidal action (Experimental Part 1, B); settings: scored visually after about 3 weeks
Procedure, shortened: (§1)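 Visual percentage scores (100% = plants died, 0% = like untreated controls) taken about 3 weeks after treatment. Compounds as WP or EC in water with 0.5% additive were applied at 600 l/ha onto soil covering freshly sown seeds, at rates of 1280 g/ha or 320 g/ha.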

[3] = test system: Veronica persica; experiment: as above; settings: application rate 1280 g/ha, scored visually after about 3 weeks
Procedure, shortened: as §1

[4] = test system: Polygonum convolvulus; experiment: as above; settings: scored visually after about 3 weeks
Procedure, shortened: as §1

[5] = test system: Matricaria inodora; experiment: as above; settings: scored visually after about 3 weeks
Procedure, shortened: as §1

[6] = test system: Viola tricolor; experiment: as above; settings: scored visually after about 3 weeks
Procedure, shortened: as §1

[7] = test system: Abutilon theophrasti; experiment: as above; settings: scored visually after about 3 weeks
Procedure, shortened: as §1

[8] = test system: Setaria viridis; experiment: as above; settings: scored visually after about 3 weeks
Procedure, shortened: as §1

[9] = test system: Alopecurus myosuroides; experiment: as above; settings: scored visually after about 3 weeks
Procedure, shortened: as §1

[10] = test system: Lolium rigidum; experiment: as above; settings: application rate 1280 g/ha, scored visually after about 3 weeks
Procedure, shortened: as §1

[11] = test system: Amaranthus retroflexus; experiment: as above; settings: scored visually after about 3 weeks
Procedure, shortened: as §1

[12] = test system: Ipomoea purpurea; experiment: as above; settings: application rate 1280 g/ha, scored visually after about 3 weeks
Procedure, shortened: as §1

[13] = test system: Echinochloa crus-galli; experiment: as above; settings: application rate 1280 g/ha, scored visually after about 3 weeks
Procedure, shortened: as §1

[14] = test system: Hordeum murinum; experiment: as above; settings: scored visually after about 3 weeks
Procedure, shortened: as §1

[15] = test system: Avena fatua; experiment: as above; settings: scored visually after about 3 weeks
Procedure, shortened: as §1

| Compound | Stellaria media, herbicidal activity ([2]; application rate 320 g/ha) [%] | Stellaria media, herbicidal activity ([2]; application rate 1280 g/ha) [%] | Veronica persica, herbicidal activity [3] [%] | Polygonum convolvulus, herbicidal activity ([4]; application rate 320 g/ha) [%] | Polygonum convolvulus, herbicidal activity ([4]; application rate 1280 g/ha) [%] | Matricaria inodora, herbicidal activity ([5]; application rate 320 g/ha) [%] | Matricaria inodora, herbicidal activity ([5]; application rate 1280 g/ha) [%] | Viola tricolor, herbicidal activity ([6]; application rate 320 g/ha) [%] | Viola tricolor, herbicidal activity ([6]; application rate 1280 g/ha) [%] | Abutilon theophrasti, herbicidal activity ([7]; application rate 320 g/ha) [%] | Abutilon theophrasti, herbicidal activity ([7]; application rate 1280 g/ha) [%] | Setaria viridis, herbicidal activity ([8]; application rate 320 g/ha) [%] | Setaria viridis, herbicidal activity ([8]; application rate 1280 g/ha) [%] | Alopecurus myosuroides, herbicidal activity ([9]; application rate 320 g/ha) [%] | Alopecurus myosuroides, herbicidal activity ([9]; application rate 1280 g/ha) [%] | Lolium rigidum, herbicidal activity [10] [%] | Amaranthus retroflexus, herbicidal activity ([11]; application rate 320 g/ha) [%] | Amaranthus retroflexus, herbicidal activity ([11]; application rate 1280 g/ha) [%] | Ipomoea purpurea, herbicidal activity [12] [%] | Echinochloa crus-galli, herbicidal activity [13] [%] | also measured |
| --- | --- | --- | --- | --- | --- | --- | --- | --- | --- | --- | --- | --- | --- | --- | --- | --- | --- | --- | --- | --- | --- |
| CCC(=O)OC1C(C)=CC(=O)N1c1cc(C(C)(C)C)on1 (stereo not drawn) [I.5-162] | 100 | 100 | 100 | 100 | 100 | 100 | 100 | 100 | 100 | 100 | 100 | 100 | 100 | 90 | 90 | 90 | 100 | 100 | 90 | 100 | Lolium rigidum, herbicidal activity [1]: 90%; Hordeum murinum, herbicidal activity ([14]; application rate 1280 g/ha): 100%; Avena fatua, herbicidal activity ([15]; application rate 320 g/ha): 90%; Avena fatua, herbicidal activity ([15]; application rate 1280 g/ha): 90% |
| CC1=CC(=O)N(c2cc(C(C)(C)C)on2)C1O (stereo not drawn) [I.1-162, 5-Hydroxy-4-methyl-1-(5-tert-butyl-1,2-isoxazol-3-yl)-1,5-dihydro-2H-pyrrol-2-one] | 100 | 100 | 100 | 100 | 100 | 100 | 100 | 100 | 100 | 100 | 100 | 100 | 100 | 90 | 100 | 100 | 100 | 100 | 100 | 100 | Hordeum murinum, herbicidal activity ([14]; application rate 320 g/ha): 90%; Hordeum murinum, herbicidal activity ([14]; application rate 1280 g/ha): 100%; Avena fatua, herbicidal activity ([15]; application rate 320 g/ha): 90%; Avena fatua, herbicidal activity ([15]; application rate 1280 g/ha): 100% |
